The record followed here is article PMC5374441 (Scientific Reports, 2017).

What is called IC50 is the point on the concentration scale where inhibition reaches its midpoint.

The structures appear in SMILES notation. Where two headings read alike, the source gives them in different places. Bridge positions count the residues as written; N and C are the ends. Peptide text beside a SMILES is read from it.

Assay in all cases: biochemical
Type in all cases: binding

The target in one assay is T1, Ls-AChBP (Lymnaea stagnalis, UniProt P58154).
T1 construct: made in house

In the next assay the target is T2, Ac-AChBP (Aplysia californica, UniProt Q8WSF8).
T2 construct: made in house
The settings on record: SEM.

A further assay deals with T3, Q55K Ls-AChBP mutant (Lymnaea stagnalis, UniProt P58154, Q74K).
T3 construct: made in house; Top10 E. coli is named only for plasmid propagation

On to `CC[C@H](C)[C@@H]1NC(=O)[C@H](CC(N)=O)NC(=O)[C@@H]2CCCN2C(=O)[C@H](CC(N)=O)NC(=O)[C@H](CC(=O)O)NC(=O)[C@H](C(C)C)NC(=O)[C@H](CCCNC(=N)N)NC(=O)[C@@H]2CSSC[C@H](NC(=O)CNC(=O)[C@@H](N)CO)C(=O)N[C@@H](CSSC[C@@H](C(N)=O)NC1=O)C(=O)N[C@@H](CO)C(=O)N[C@@H](CC(N)=O)C(=O)N1CCC[C@H]1C(=O)N[C@@H](C)C(=O)N2` [N12D-LsIA] (H-SGCCSNPACRVDNPNIC-NH2; disulfide 3-9, 4-17), for which the concentration for half-maximal inhibition (IC50) at Ls-AChBP was greater than 10000 nM; at Ac-AChBP, 5550 nM.

Consider `CC[C@H](C)[C@@H]1NC(=O)[C@H](CC(N)=O)NC(=O)[C@@H]2CCCN2C(=O)[C@H](CC(N)=O)NC(=O)[C@H](CC(C)C)NC(=O)[C@H](C(C)C)NC(=O)[C@H](CCCNC(=N)N)NC(=O)[C@@H]2CSSC[C@H](NC(=O)CNC(=O)[C@@H](N)CO)C(=O)N[C@@H](CSSC[C@@H](C(N)=O)NC1=O)C(=O)N[C@@H](CO)C(=O)N[C@@H](CC(N)=O)C(=O)N1CCC[C@H]1C(=O)N[C@@H](C)C(=O)N2` [N12L-LsIA] (H-SGCCSNPACRVLNPNIC-NH2; disulfide 3-9, 4-17), for which the IC50 against Ls-AChBP is greater than 10000 nM; against Ac-AChBP it was 61 ± 7 nM.

As for `CC[C@H](C)[C@@H]1NC(=O)[C@H](CC(N)=O)NC(=O)[C@@H]2CCCN2C(=O)[C@H](CC(N)=O)NC(=O)[C@H](CCC(N)=O)NC(=O)[C@H](C(C)C)NC(=O)[C@H](CCCNC(=N)N)NC(=O)[C@@H]2CSSC[C@H](NC(=O)CNC(=O)[C@@H](N)CO)C(=O)N[C@@H](CSSC[C@@H](C(N)=O)NC1=O)C(=O)N[C@@H](CO)C(=O)N[C@@H](CC(N)=O)C(=O)N1CCC[C@H]1C(=O)N[C@@H](C)C(=O)N2` [N12Q-LsIA] (H-SGCCSNPACRVQNPNIC-NH2; disulfide 3-9, 4-17), the IC50 was 2440 ± 750 nM on Ls-AChBP (SEM) and 55.2 ± 0.9 nM against Ac-AChBP.

As to `CC[C@H](C)[C@@H]1NC(=O)[C@H](CC(N)=O)NC(=O)[C@@H]2CCCN2C(=O)[C@H](CC(N)=O)NC(=O)[C@H](CC(N)=O)NC(=O)[C@H](C(C)C)NC(=O)[C@H](CC(=O)O)NC(=O)[C@@H]2CSSC[C@H](NC(=O)CNC(=O)[C@@H](N)CO)C(=O)N[C@@H](CSSC[C@@H](C(N)=O)NC1=O)C(=O)N[C@@H](CO)C(=O)N[C@@H](CC(N)=O)C(=O)N1CCC[C@H]1C(=O)N[C@@H](C)C(=O)N2` [R10D-LsIA] (H-SGCCSNPACDVNNPNIC-NH2; disulfide 3-9, 4-17), the half-inhibitory concentration (IC50) against Ls-AChBP was greater than 10000 nM; against Q55K Ls-AChBP mutant, greater than 10000 nM; against Ac-AChBP, 8370 nM. At Ls-AChBP, the “activity at Ls-AChBP (in words)” value is “inactive”.

As to `CC[C@H](C)[C@@H]1NC(=O)[C@H](CC(N)=O)NC(=O)[C@@H]2CCCN2C(=O)[C@H](CC(N)=O)NC(=O)[C@H](CC(N)=O)NC(=O)[C@H](C(C)C)NC(=O)[C@H](Cc2ccccc2)NC(=O)[C@@H]2CSSC[C@H](NC(=O)CNC(=O)[C@@H](N)CO)C(=O)N[C@@H](CSSC[C@@H](C(N)=O)NC1=O)C(=O)N[C@@H](CO)C(=O)N[C@@H](CC(N)=O)C(=O)N1CCC[C@H]1C(=O)N[C@@H](C)C(=O)N2` [R10F-LsIA] (H-SGCCSNPACFVNNPNIC-NH2; disulfide 3-9, 4-17), the figures for the IC50 at Ls-AChBP (SEM), at Q55K Ls-AChBP mutant (SEM) and against Ac-AChBP were 110 ± 20 nM, 800 ± 260 nM and 2.2 ± 0.05 nM, respectively.

For `CC[C@H](C)[C@@H]1NC(=O)[C@H](CC(N)=O)NC(=O)[C@@H]2CCCN2C(=O)[C@H](CC(N)=O)NC(=O)[C@H](CC(N)=O)NC(=O)[C@H](C(C)C)NC(=O)[C@H](CCSC)NC(=O)[C@@H]2CSSC[C@H](NC(=O)CNC(=O)[C@@H](N)CO)C(=O)N[C@@H](CSSC[C@@H](C(N)=O)NC1=O)C(=O)N[C@@H](CO)C(=O)N[C@@H](CC(N)=O)C(=O)N1CCC[C@H]1C(=O)N[C@@H](C)C(=O)N2` [R10M-LsIA] (H-SGCCSNPACMVNNPNIC-NH2; disulfide 3-9, 4-17), the 50% inhibitory concentration (IC50) on Ls-AChBP (SEM) turned out to be 500 ± 160 nM; at Q55K Ls-AChBP mutant (SEM) it was 7100 ± 2500 nM; on Ac-AChBP, 1.88 ± 0.65 nM.
